Assay results: ChEMBL document CHEMBL1128800, “Diastereoselective synthesis of mixanpril, an orally active dual inhibitor of neutral endopeptidase and angiotensin converting enzyme” (Bioorg Med Chem Lett, 1995)
The source made the active and inactive calls. The rule behind the calls is not given here.

Key:
[1] = target: T1, Neprilysin (Rattus norvegicus) (UniProt P07861); test: Tested for inhibitory activity against neutral endopeptidase at a dose of 2.5 mg/kg in rats; Active; type: organism-based; set-up: dose 2.5 mg/kg
T1 sequence (whole entry): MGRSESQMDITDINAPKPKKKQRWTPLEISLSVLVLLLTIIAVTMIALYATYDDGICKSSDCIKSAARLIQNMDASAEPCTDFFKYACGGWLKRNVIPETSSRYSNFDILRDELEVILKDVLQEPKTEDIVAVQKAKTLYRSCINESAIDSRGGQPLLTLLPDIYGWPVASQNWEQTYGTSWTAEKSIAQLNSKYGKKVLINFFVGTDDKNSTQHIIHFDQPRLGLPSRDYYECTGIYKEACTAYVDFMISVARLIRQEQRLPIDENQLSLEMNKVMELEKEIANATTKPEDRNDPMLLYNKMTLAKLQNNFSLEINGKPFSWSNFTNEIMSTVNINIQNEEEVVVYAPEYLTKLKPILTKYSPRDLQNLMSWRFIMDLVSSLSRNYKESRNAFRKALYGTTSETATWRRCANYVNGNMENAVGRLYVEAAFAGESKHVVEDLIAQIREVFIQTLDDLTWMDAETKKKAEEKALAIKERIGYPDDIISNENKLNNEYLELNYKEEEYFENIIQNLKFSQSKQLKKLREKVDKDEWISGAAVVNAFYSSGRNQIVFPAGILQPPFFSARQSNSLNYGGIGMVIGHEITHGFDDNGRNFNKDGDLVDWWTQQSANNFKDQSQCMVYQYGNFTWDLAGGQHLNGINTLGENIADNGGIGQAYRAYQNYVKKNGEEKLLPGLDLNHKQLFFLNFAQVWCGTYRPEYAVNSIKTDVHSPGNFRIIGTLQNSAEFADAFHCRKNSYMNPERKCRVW

[2] = target: T2, Angiotensin-converting enzyme (Rattus norvegicus) (UniProt P47820); test: […] inhibitory activity against plasmatic angiotensin converting enzyme (ACE) in anaesthetized rats after oral administration of 5 mg/kg dose; type: organism-based; set-up: dose 5 mg/kg
T2 sequence (whole entry): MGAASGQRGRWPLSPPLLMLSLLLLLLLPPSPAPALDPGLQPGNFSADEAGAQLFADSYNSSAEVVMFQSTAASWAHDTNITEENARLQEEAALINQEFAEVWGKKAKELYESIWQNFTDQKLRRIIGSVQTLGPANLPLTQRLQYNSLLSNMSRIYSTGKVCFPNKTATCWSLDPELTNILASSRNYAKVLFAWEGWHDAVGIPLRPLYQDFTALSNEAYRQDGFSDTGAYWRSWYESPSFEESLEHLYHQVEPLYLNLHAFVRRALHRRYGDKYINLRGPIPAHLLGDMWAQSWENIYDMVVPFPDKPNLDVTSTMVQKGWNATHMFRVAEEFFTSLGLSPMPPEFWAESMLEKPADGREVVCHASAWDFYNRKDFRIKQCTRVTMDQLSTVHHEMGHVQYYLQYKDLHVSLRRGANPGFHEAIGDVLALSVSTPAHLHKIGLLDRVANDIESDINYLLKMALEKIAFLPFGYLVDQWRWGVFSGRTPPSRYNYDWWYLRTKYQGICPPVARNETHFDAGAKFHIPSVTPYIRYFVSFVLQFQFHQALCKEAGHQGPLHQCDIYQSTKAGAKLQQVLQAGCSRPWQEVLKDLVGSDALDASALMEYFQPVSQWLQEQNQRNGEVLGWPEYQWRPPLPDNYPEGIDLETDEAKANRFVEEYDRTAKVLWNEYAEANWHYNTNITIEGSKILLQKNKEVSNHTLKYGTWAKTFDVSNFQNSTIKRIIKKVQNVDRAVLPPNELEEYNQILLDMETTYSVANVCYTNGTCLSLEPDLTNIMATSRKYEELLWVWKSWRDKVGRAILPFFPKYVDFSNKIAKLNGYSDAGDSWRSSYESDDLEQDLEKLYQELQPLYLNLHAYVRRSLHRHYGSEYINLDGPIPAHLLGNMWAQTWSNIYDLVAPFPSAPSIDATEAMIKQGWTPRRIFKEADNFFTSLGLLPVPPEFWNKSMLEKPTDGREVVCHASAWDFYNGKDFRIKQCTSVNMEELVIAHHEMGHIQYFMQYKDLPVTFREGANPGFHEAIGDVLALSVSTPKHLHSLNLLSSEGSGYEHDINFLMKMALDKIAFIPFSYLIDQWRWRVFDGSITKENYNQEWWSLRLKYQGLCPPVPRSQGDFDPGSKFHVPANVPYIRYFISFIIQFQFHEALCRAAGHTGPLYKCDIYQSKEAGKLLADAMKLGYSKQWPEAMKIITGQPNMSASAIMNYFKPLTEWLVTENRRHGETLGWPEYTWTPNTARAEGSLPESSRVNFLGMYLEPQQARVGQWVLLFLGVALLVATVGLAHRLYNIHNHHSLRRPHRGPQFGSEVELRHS

[3] = target: T2, Angiotensin-converting enzyme (Rattus norvegicus); test: […] inhibitory activity against plasmatic angiotensin converting enzyme (ACE) in anaesthetized rats after oral administration of 150 mg/kg dose; type: organism-based; set-up: dose 150 mg/kg
[4] = target: T2, Angiotensin-converting enzyme (Rattus norvegicus); test: […] inhibitory activity against plasmatic angiotensin converting enzyme (ACE) in anaesthetized rats after oral administration of 2.5 mg/kg dose; type: organism-based; set-up: dose 2.5 mg/kg
[5] = target: T2, Angiotensin-converting enzyme (Rattus norvegicus); test: […] inhibitory activity against plasmatic angiotensin converting enzyme (ACE) in anaesthetized rats after oral administration of 10 mg/kg dose; type: organism-based; set-up: dose 10 mg/kg
[6] = target: T2, Angiotensin-converting enzyme (Rattus norvegicus); test: […] inhibitory activity against plasmatic angiotensin converting enzyme (ACE) in anaesthetized rats after oral administration of 100 mg/kg dose; type: organism-based; set-up: dose 100 mg/kg
[7] = target: T2, Angiotensin-converting enzyme (Rattus norvegicus); test: […] inhibitory activity against plasmatic angiotensin converting enzyme (ACE) in anaesthetized rats after oral administration of 50 mg/kg dose; type: organism-based; set-up: dose 50 mg/kg
[8] = target: T2, Angiotensin-converting enzyme (Rattus norvegicus); test: Effective dose against plasmatic angiotensin converting enzyme (ACE) in anaesthetized rats; conditions: Plasma
[9] = target: T2, Angiotensin-converting enzyme (Rattus norvegicus); test: […] inhibitory activity against plasmatic angiotensin converting enzyme (ACE) in anaesthetized rats after oral administration of 25 mg/kg dose; type: organism-based; set-up: dose 25 mg/kg

Activity [1]: Active | inhibition [2]: 35% | inhibition [3]: 82% | inhibition [4]: 25% | inhibition [5]: 50% | inhibition [6]: 70% | inhibition [7]: 65% | ED50 [8]: 12 mg/kg | inhibition [9]: 55%
SMILES: CC(NC(=O)C(CSC(=O)c1ccccc1)C(C)c1ccccc1)C(=O)O (centres undefined)
